Data published in patent US4323602A, “Water repellent and preservative for wood products” (priority 1980, dated 1982).

Tested on: Lenzites trabea (Madison strain 617)
Test: NWMA Soil-Block Test (fungicide effectiveness, wood decay)
Conditions: 5.4 times the threshold concentration (NWMA)
Experimental: The product of Table 2, diluted with four parts water, was tested as a fungicide using a standard National Woodwork Manufacturers Association (NWMA) Soil-Block Test to determine and compare effectiveness with a Standard Solvent Based 5% Penta treating solution. This test method is used to determine the minimum amount of preservative that is effective in preventing decay of selected species of wood by selected fungi under optimum laboratory conditions.
The test method may be briefly summarized as follows: Conditioned blocks of wood are impregnated with solutions of a preservative in water or organic solvent to form one or more series of gradient retentions of the preservative in the blocks. After periods of weathering, the impregnated blocks are exposed to the wood-destroying fungus, Lenzites trabea (Madison strain 617). The minimum amount of preservative which protects the impregnated blocks against decay by the fungus is defined as the threshold retention for that organism. Failure to protect is evidenced by loss of wood from the treated wood blocks, as indicated by a loss in weight.
The threshold retention expressed in pounds of treating solution per cubic foot of wood represents the minimum amount of preservative necessary to protect wood from decay. […]

Q: CCCCNC(=O)OCC#CI [Example 3-Iodo, 3-iodo-2-propynyl butyl carbamate] was tested. Which “Use Concentration” value did it give?
A: 0.27%
